According to US11091511B2, “Panaxdiol-type ginsenoside derivative, preparation method therefor and use thereof” (ARMY MEDICAL UNIVERSITY, priority 2016, dated 2021):
Marks after values point to notes of the source that are not given here.

Assays:
[1] = tested on: RAW264.7 cell-derived foam cells; assay: Formation of RAW264.7 cell-derived foam cells (ox-LDL, oil red O, absorbance 490 nm); type: cell-based, mouse; settings: 48 hours, model group = 100%, x ± s, n = 3
Protocol: The effects of the compounds prepared in Examples 1-30 of the present invention on the formation of RAW264.7 cell-derived foam cells, the specific steps are as follows:
1. Cell culture and foam cell model establishment:
RAW264.7 cells were cultured in DMEM culture medium with high glucose level (GIBCO) to a cell concentration of 1×10^6, planted in a 6-well plate, and 60 mg/L of ox-LDL (oxidized modified low-density lipoprotein, Peking Union Medical College) was added, foam cells were obtained after 48 hours of incubation.
2. Grouping and index detection:
The obtained foam cells were divided into 61 groups, 3 well plates were included in one group. After the treatment by adding the drugs (100 μL/well) for 48 hours, the medium was discarded, and after oil red 0 staining, the excess amount of oil red 0 was washed away. The cells were dissolved in isopropanol and the absorbance values were measured at 490 nm. The OD value of the model group was 100%, and the OD value of each group corrected by the number of cells was compared with the model group to obtain the ratio of intracellular lipid content. The larger the value, the more intracellular lipids, the higher the degree of formation of foam cells.
Normal saline control group: normal saline
Low dose groups of the compounds prepared in Examples 1-30 of the present invention:
10 μmol/L (solvents were normal saline).
High dose groups of compounds prepared in Examples 1-30 of the present invention: 30 μmol/L (solvents were normal saline).
Data were expressed as x±s, and SPSS 10.0 line single-factor analysis of variance was performed amoung groups, a significant difference was indicated when p<0.05.

[2] = tested on: apoE−/− mice; assay: Blood lipids (LDL-C, HDL-C) in apoE-/- mice on high-fat diet; type: in vivo, mouse; settings: apoE-/- mice serum, intragastric 15 weeks, compounds 30 mg/(kg·d), simvastatin 10 mg/(kg·d), x ± s; for HDL-C: n = 5, saline control 3.74 ± 0.62; for LDL-C: n = 5, saline control 7.33 ± 1.03
Excerpt: The effects of the compounds prepared in Examples 1-30 of the present invention on the percentages of areas of atherosclerotic plaque formation to the area of the entire artery in apoE−/− mice with a high-fat diet and the levels of low-density lipoprotein cholesterol and the levels of high-density lipoprotein, the specific steps are as follows:
1. animals: 160 ten-week-old, healthy and clean-grade apoE−/− mice (purchased from Peking University Experimental Animal Center), males, weight: 22-25 g, were housed in separate cages in a sterile laminar feeding room and fed freely. The mice were fed by a high-fat diet (conventional feed+0.15% cholesterol+21% lard) for 25 weeks, the room temperature was kept at 24° C., relative humidity: 50%, illumination time 7:30-19:30.
2. Grouping, administration method:
after 10 weeks of feeding, the animals were divided into the following 32 groups (n=5) by weight in a balanced and random manner, and killed 15 weeks after administration.
Normal saline control group: normal saline, intragastric administration.
Positive control group: simvastatin 10 mg/(kg·d), intragastric administration.
The compound groups prepared in Examples 1-30 of the present invention (30 groups in total): each was intragastric administered 30 mg/(kg·d).
(2) Determination of the levels of total cholesterol (TC), low-density cholesterol lipoprotein (LDL-C) and high-density lipoprotein cholesterol (HDL-C): using ROCHE 7060 automatic biochemical analyzer for the determination.
Data were expressed as x±s, and SPSS 10.0 line single-factor analysis of variance was performed among groups, a significant difference was indicated when p<0.05.

[3] = tested on: RAW264.7 cells; assay: RAW264.7 cell survival rate by CCK8 method; type: cell-based, mouse; settings: compound 10 prnol/L, 0.1% DMSO, CCK8, x ± s, n = 3, normal saline control = 1
Protocol: In order to further verify the toxicities of the compounds prepared in Examples 1-30 of the present invention, the mouse macrophage cell line RAW264.7 was cultured, and the compounds prepared in Examples 1-30 of the invention were prepared to a concentration of […] using culture medium, wherein the solvent was normal saline, the co-solvent was dimethyl sulfoxide (DMSO, the final concentratoin was 0.1%), and a 0.1% DMSO saline control group was provided. The cell survival rate was determined by CCK8 method. The data were expressed as x±s. SPSS 10.0 line single-factor analysis of variance was performed among groups. The difference was significant when p<0.05.

[4] = tested on: TNF-α; assay: Local TNF-α level in the arteries of apoE-/- mice (Millipore liquid phase chip); type: in vivo, mouse; settings: high-fat diet, intragastric 15 weeks, compounds 30 mg/(kg·d), simvastatin 10 mg/(kg·d), x ± s, n = 5, saline control 25.58 ± 6.44
Excerpt: (§1) The effects of the compounds prepared in Examples 1-30 of the present invention on the percentages of areas of atherosclerotic plaque formation to the area of the entire artery in apoE−/− mice with a high-fat diet and the levels of low-density lipoprotein cholesterol and the levels of high-density lipoprotein, the specific steps are as follows: 1. animals: 160 ten-week-old, healthy and clean-grade apoE−/− mice (purchased from Peking University Experimental Animal Center), males, weight: 22-25 g, were housed in separate cages in a sterile laminar feeding room and fed freely. The mice were fed by a high-fat diet (conventional feed+0.15% cholesterol+21% lard) for 25 weeks, the room temperature was kept at 24° C., relative humidity: 50%, illumination time 7:30-19:30. 2. Grouping, administration method: after 10 weeks of feeding, the animals were divided into the following 32 groups (n=5) by weight in a balanced and random manner, and killed 15 weeks after administration. Normal saline control group: normal saline, intragastric administration. Positive control group: simvastatin 10 mg/(kg·d), intragastric administration. The compound groups prepared in Examples 1-30 of the present invention (30 groups in total): each was intragastric administered 30 mg/(kg·d). (3) Determination of TNF-α level: Millipore liquid phase chip method was used for the determination (Mcytomag-70K-3, Mouse Cytokine/Chemokine Magnetic Bead Panel). Data were expressed as x±s, and SPSS 10.0 line single-factor analysis of variance was performed among groups, a significant difference was indicated when p<0.05.

[5] = tested on: apoE−/− mice; assay: Atherosclerotic plaque area to total aortic area in apoE-/- mice on high-fat diet (Sudan IV staining); type: in vivo, mouse; settings: intragastric 15 weeks, compounds 30 mg/(kg·d), simvastatin 10 mg/(kg·d), x ± s, n = 5, saline control 14.67 ± 3.58
Excerpt: as §1, with “(1) Analysis” for “(3) Determination”, “the area of atherosclerotic plaque and its percentage to total area: after the animals were killed, the aortas were separated, from the roots of the aortas to the terminal bifurcations of the abdominal aortas. After formalin fixation, the aortas were stained with Sudan IV, the red stained parts were the areas of atherosclerotic lesions. The percentage of the area of the lesion area to total area” for “TNF-α level: Millipore liquid phase chip method”, “calculated using Image Pro Plus 5.0 software.” for “used for the determination (Mcytomag-70K-3, Mouse Cytokine/Chemokine Magnetic Bead Panel).”

COC(=O)CC[C@H](NCCC[C@](C)(O[C@H]1O[C@H](COC(C)=O)[C@@H](OC(C)=O)[C@H](OC(C)=O)[C@H]1OC(C)=O)C1CC[C@]2(C)[C@@H]1C(OC(C)=O)CC1[C@@]3(C)CC[C@H](OC(C)=O)C(C)(C)C3CC[C@]12C)C(=O)OC (some centres unmarked) [Compound 8]
Foam cell formation (%) ([1]; dose 10 μmol/L): 73 ± 16 ^a % | Foam cell formation (%) ([1]; dose 30 μmol/L): 51 ± 17 ^a % | HDL-C [2]: 5.63 ± 0.84 ^a mmol/L | LDL-C [2]: 4.34 ± 1.19 ^a mmol/L | Cell Survival Rate [3]: 0.82 ± 0.06 | TNF-α level (ng/g) [4]: 12.67 ± 3.11 ^a ng/g | Plaque area/total aorta area (%) [5]: 9.31 ± 3.58 ^a %

COC(=O)CNCCC[C@](C)(O[C@H]1O[C@H](COC(C)=O)[C@@H](OC(C)=O)[C@H](OC(C)=O)[C@H]1OC(C)=O)C1CC[C@]2(C)[C@@H]1C(OC(C)=O)CC1[C@@]3(C)CC[C@H](OC(C)=O)C(C)(C)C3CC[C@]12C (some centres unmarked) [Compound 9]
Foam cell formation (%) ([1]; dose 10 μmol/L): 79 ± 23% | Foam cell formation (%) ([1]; dose 30 μmol/L): 65 ± 17 ^a % | HDL-C [2]: 4.41 ± 0.67 ^a mmol/L | LDL-C [2]: 6.84 ± 0.85 mmol/L | Cell Survival Rate [3]: 0.85 ± 0.07 | TNF-α level (ng/g) [4]: 12.85 ± 4.17 ^a ng/g | Plaque area/total aorta area (%) [5]: 10.55 ± 2.19 ^a %

CCOC(=O)CCNCCC[C@](C)(O[C@H]1O[C@H](COC(C)=O)[C@@H](OC(C)=O)[C@H](OC(C)=O)[C@H]1OC(C)=O)C1CC[C@]2(C)[C@@H]1C(OC(C)=O)CC1[C@@]3(C)CC[C@H](OC(C)=O)C(C)(C)C3CC[C@]12C (some centres unmarked) [Compound 10]
Foam cell formation (%) ([1]; dose 10 μmol/L): 69 ± 18 ^a % | Foam cell formation (%) ([1]; dose 30 μmol/L): 45 ± 21 ^a % | HDL-C [2]: 4.50 ± 0.94 ^a mmol/L | LDL-C [2]: 6.54 ± 1.06 mmol/L | Cell Survival Rate [3]: 0.82 ± 0.13 | TNF-α level (ng/g) [4]: 11.66 ± 2.65 ^a ng/g | Plaque area/total aorta area (%) [5]: 8.52 ± 3.25 ^a %

CCOC(=O)C(NCCC[C@](C)(O[C@H]1O[C@H](COC(C)=O)[C@@H](OC(C)=O)[C@H](OC(C)=O)[C@H]1OC(C)=O)C1CC[C@]2(C)[C@@H]1C(OC(C)=O)CC1[C@@]3(C)CC[C@H](OC(C)=O)C(C)(C)C3CC[C@]12C)C(=O)OCC (some centres unmarked) [Compound 11]
Foam cell formation (%) ([1]; dose 10 μmol/L): 72 ± 14 ^a % | Foam cell formation (%) ([1]; dose 30 μmol/L): 65 ± 15 ^a % | HDL-C [2]: 4.93 ± 0.58 ^a mmol/L | LDL-C [2]: 6.59 ± 1.56 mmol/L | Cell Survival Rate [3]: 0.84 ± 0.12 | TNF-α level (ng/g) [4]: 12.33 ± 5.81 ^a ng/g | Plaque area/total aorta area (%) [5]: 9.68 ± 3.52 ^a %

COC(=O)[C@H](Cc1ccccc1)NCCC[C@](C)(O[C@H]1O[C@H](COC(C)=O)[C@@H](OC(C)=O)[C@H](OC(C)=O)[C@H]1OC(C)=O)C1CC[C@]2(C)[C@@H]1C(OC(C)=O)CC1[C@@]3(C)CC[C@H](OC(C)=O)C(C)(C)C3CC[C@]12C (some centres unmarked) [Compound 12]
Foam cell formation (%) ([1]; dose 10 μmol/L): 84 ± 15% | Foam cell formation (%) ([1]; dose 30 μmol/L): 68 ± 21 ^a % | HDL-C [2]: 4.44 ± 0.83 ^a mmol/L | LDL-C [2]: 5.27 ± 1.74 ^a mmol/L | Cell Survival Rate [3]: 0.87 ± 0.16 | TNF-α level (ng/g) [4]: 18.27 ± 5.24 ^a ng/g | Plaque area/total aorta area (%) [5]: 10.23 ± 3.54 ^a %

COC(=O)[C@@H](Cc1ccc(O)cc1)NCCC[C@](C)(O[C@H]1O[C@H](COC(C)=O)[C@@H](OC(C)=O)[C@H](OC(C)=O)[C@H]1OC(C)=O)C1CC[C@]2(C)[C@@H]1C(OC(C)=O)CC1[C@@]3(C)CC[C@H](OC(C)=O)C(C)(C)C3CC[C@]12C (some centres unmarked) [Compound 13]
Foam cell formation (%) ([1]; dose 10 μmol/L): 71 ± 14 ^a % | Foam cell formation (%) ([1]; dose 30 μmol/L): 47 ± 23 ^a % | HDL-C [2]: 5.29 ± 1.18 ^a mmol/L | LDL-C [2]: 5.07 ± 0.99 ^a mmol/L | Cell Survival Rate [3]: 0.85 ± 0.12 | TNF-α level (ng/g) [4]: 15.65 ± 6.74 ^a ng/g | Plaque area/total aorta area (%) [5]: 9.44 ± 3.24 ^a %

COC(=O)[C@H](Cc1c[nH]cn1)NCCC[C@](C)(O[C@H]1O[C@H](COC(C)=O)[C@@H](OC(C)=O)[C@H](OC(C)=O)[C@H]1OC(C)=O)C1CC[C@]2(C)[C@@H]1C(OC(C)=O)CC1[C@@]3(C)CC[C@H](OC(C)=O)C(C)(C)C3CC[C@]12C (some centres unmarked) [Compound 14]
Foam cell formation (%) ([1]; dose 10 μmol/L): 78 ± 18 ^a % | Foam cell formation (%) ([1]; dose 30 μmol/L): 66 ± 16 ^a % | HDL-C [2]: 4.39 ± 0.59 ^a mmol/L | LDL-C [2]: 5.58 ± 1.11 ^a mmol/L | Cell Survival Rate [3]: 0.83 ± 0.06 | TNF-α level (ng/g) [4]: 16.92 ± 5.04 ^a ng/g | Plaque area/total aorta area (%) [5]: 9.34 ± 3.01 ^a %

COC(=O)[C@H](CC1CNc2ccccc21)NCCC[C@](C)(O[C@H]1O[C@H](COC(C)=O)[C@@H](OC(C)=O)[C@H](OC(C)=O)[C@H]1OC(C)=O)C1CC[C@]2(C)[C@@H]1C(OC(C)=O)CC1[C@@]3(C)CC[C@H](OC(C)=O)C(C)(C)C3CC[C@]12C (some centres unmarked) [Compound 15]
Foam cell formation (%) ([1]; dose 10 μmol/L): 68 ± 12 ^a % | Foam cell formation (%) ([1]; dose 30 μmol/L): 56 ± 22 ^a % | HDL-C [2]: 4.12 ± 0.82 ^a mmol/L | LDL-C [2]: 6.54 ± 1.36 mmol/L | Cell Survival Rate [3]: 0.88 ± 0.04 | TNF-α level (ng/g) [4]: 16.07 ± 3.67 ^a ng/g | Plaque area/total aorta area (%) [5]: 10.22 ± 2.19 ^a %
